The source of these data is US6007834A (priority 1997, dated 1999).

Data set [1] has as its system nasal mucosa. To be noted: propylene glycol in place of ethanol; cited from earlier work.
The test system of data set [2] is nasal mucosa. To be noted: in vivo.
The nature of data set [3]: Blood plasma melatonin concentrations and pharmacokinetics in healthy male volunteers, by radioimmunoassay (cross-over study). To be noted: for Tmax: human, plasma. In kind it is in vivo, human. Here is the method:
An open randomized, four treatment (treatments A, B, C and D below), cross-over study involving 8 healthy male volunteers was carried out. Before drug administration, the subjects were fasted overnight for at least 10 hours. The administered formulations were as follows:
A: 100 μl water, intranasal (placebo);

The conditions of data set [4]: cited from earlier work.

As to `CC(O)CO` (stereo not drawn) [propylene glycol], in the data set with nasal mucosa [1], the “toxicity to the nasal mucosa” value is reported as “adversely affects the nasal mucosa”.

As for `OCC(O)CO` [glycerol], the “irritation of the nasal mucosa” value in the data set with nasal mucosa [2] is reported as “does not lead to irritation of the nasal mucosa”. The “toxicity towards the epithelial membrane” value in the data set with epithelial membrane was “does not exert toxicity towards the epithelial membrane”.

With `COc1ccc2[nH]cc(CCNC(C)=O)c2c1` [melatonin, N-acetyl-5-methoxytryptamine], the “Cmax, times higher than that resulting from the oral dose” value in data set [3] (0.2 mg nasal vs 2.5 mg oral) was “about 5 times”; in data set [3] (0.4 mg nasal vs 2.5 mg oral), approximately 11 times. Also, the “amount of melatonin absorbed, 0.2 mg nasal dose vs 2.5 mg oral dose” value in data set [3] (0.2 mg nasal vs 2.5 mg oral) is recorded as “About the same amount”. For the same molecule, in data set [3] (0.4 mg nasal vs 0.2 mg nasal), the “amount of melatonin absorbed, 0.4 mg nasal dose vs 0.2 mg nasal dose” value is listed as “proportional”. In addition, in data set [3] (0.2 and 0.4 mg nasal doses), the “dose proportionality of peak plasma concentrations (Cmax)” value is recorded as “proportional”. Moreover, the time to peak (Tmax) (commonly the time from dosing to the highest level) in data set [3] (po, 2.5 mg) is 1.5 h; in data set [3] (0.2 and 0.4 mg nasal doses) it was less than 0.167 h. In addition, the rate of absorption entry in data set [3] (nasally administered) is reported as “absorbed extremely rapidly”. In addition, in data set [4], the solubility in water entry was “low solubility”.
